Data taken from US9234006B2, “Compounds” (Novacta Biosystems Limited, priority 2011, dated 2016).
*1 amine or outer side, *2 acyl side, *3 side chain or, on linkers, in order; H or OH if unused. Where a SMILES comes first, the peptide text is derived from it. Bridges are numbered along the chain shown (N, C = ends). [ ]: non-standard residue; d: D form. The star is where a group is joined. ξ: configuration not given here. Achc(trans-4) = O=C([C@H]1CC[C@H](N[*:1])CC1)[*:2]; GABA(4S-Me) = C[C@@H](CCC(=O)[*:2])N[*:1]; Octanoyl(3-OH) = CCCCCC(O)CC(=O)*; NMeGABA = CN(CCCC(=O)[*:2])[*:1]; X8 = O=C([C@H]1CC[C@H](O)CC1)*; Thr(3ξ) = CC(O)[C@H](N)C(=O)O; Propanoyl(3-OH) = O=C(CCO)*; X10 = O=C(CC[C@@H]1CCCN1)*; ξAoc(2) = CCCCCCC(N)C(=O)O; NH(2-ClPh) = Clc1ccccc1N*; Dab = NCC[C@H](N)C(=O)O; X12 = O=C(CCCN1CCOCC1)*; X11 = CC(C)(N)CCC(=O)*; X7 = NC1CCC(C(=O)*)CC1; CO = O=C([*:1])[*:2]; Glycolyl = O=C(CO)*; X9 = O=C(CCCCCO)*

Assays:
Test in all cases: MIC susceptibility testing, broth microdilution in CaMHB
E. coli ATCC25922 = assay type: cell-based, Escherichia coli; conditions: Table 4A, different batches of cation-adjusted Muller-Hinton broth
Protocol: (§1) To evaluate the potency and spectrum of the compounds, susceptibility testing was performed against four strains of each of the four Gram negative pathogens, Escherichia coli, Pseudomonas aeruginosa, Klebsiella pneumoniae and Acinetobacter baumannii.
(§2) The day before testing, 3 to 4 colonies were picked from fresh Mueller-Hinton Agar (MHA) plate and transferred into 10 mL of Cation adjusted MHB (CaMHB). Cultures were incubated at 37° C. 250 rpm for 18-20 hours before being diluted 100-fold in fresh CaMHB. The subcultures were grown further until the OD600 reached 0.2-0.3 corresponding to […]. The actively growing cultures were diluted 100-fold in fresh medium and used for the inoculum.
(§3) The assays were performed in duplicate.
(§4) Data was obtained under similar conditions to Table 4 except that different batches of cation-adjusted Muller-Hinton broth were used. The MIC values for these compounds are compared with those values obtained for Polymyxin B, Colistin Sulphate, CB-182,804 and NAB739 (as the TFA salt). CB-182,804 is a polymyxin decapeptide derivative with an aryl urea substituent at the N-terminus, which has been claimed to have lower toxicity than Polymyxin B (compound 5 in WO 2010/075416. See page 37). NAB739 has been described previously by Vaara et al.

P. aeruginosa ATCC27853 = assay type: cell-based, Pseudomonas aeruginosa; conditions: Table 4A, different batches of cation-adjusted Muller-Hinton broth
Protocol: as §1, §2, §3, §4

K. pneumoniae ATCC 4352 = assay type: cell-based, Klebsiella pneumoniae; conditions: K. pneumoniae ATCC4352; Table 4A, different batches of cation-adjusted Muller-Hinton broth
Protocol: as §1, §2, §3, §4

A. baumannii ATCC19606 = assay type: cell-based, Acinetobacter baumannii; conditions: Table 4A, different batches of cation-adjusted Muller-Hinton broth
Protocol: as §1, §2, §3, §4

Structure (SMILES) | MIC (E. coli ATCC25922) [micrograms/mL] | MIC (P. aeruginosa ATCC27853) [micrograms/mL] | MIC (K. pneumoniae ATCC 4352) [micrograms/mL] | MIC (A. baumannii ATCC19606) [micrograms/mL]
CC(C)C[C@@H]1NC(=O)[C@@H](Cc2ccccc2)NC(=O)[C@H](CCN)NC(=O)[C@@H](NC(=O)[C@H](CCN)NC(=O)[C@@H](NC(=O)CC[C@H](C)N)C(C)O)CCNC(=O)[C@H](C(C)O)NC(=O)[C@H](CCN)NC(=O)[C@H](CCN)NC1=O (stereo partly drawn) [Example 31, 4-(S)-aminopentanoyl polymyxin B nonapeptide] ({GABA(4S-Me)}-[Thr(3ξ)][Dab][Dab][Dab][dF]L[Dab][Dab][Thr(3ξ)]; lactam 3-C) | >32 | 0.25 | 0.5 | 8
CC(C)C[C@@H]1NC(=O)[C@@H](Cc2ccccc2)NC(=O)[C@H](CCN)NC(=O)[C@@H](NC(=O)[C@H](CCN)NC(=O)[C@@H](NC(=O)[C@H]2CC[C@H](O)CC2)C(C)O)CCNC(=O)[C@H](C(C)O)NC(=O)[C@H](CCN)NC(=O)[C@H](CCN)NC1=O (stereo partly drawn) [Example 32, trans-4-hydroxycyclohexanecarbonyl polymyxin B nonapeptide] (X8-[Thr(3ξ)][Dab][Dab][Dab][dF]L[Dab][Dab][Thr(3ξ)]; lactam 3-C) | 8 | 0.125 | 4 | 16
CC(C)C[C@@H]1NC(=O)[C@@H](Cc2ccccc2)NC(=O)[C@H](CCN)NC(=O)[C@@H](NC(=O)[C@H](CCN)NC(=O)[C@@H](NC(=O)[C@H]2CC[C@H](N)CC2)C(C)O)CCNC(=O)[C@H](C(C)O)NC(=O)[C@H](CCN)NC(=O)[C@H](CCN)NC1=O (stereo partly drawn) [Example 24, trans-4-aminocyclohexanecarbonyl polymyxin B nonapeptide] ({Achc(trans-4)}-[Thr(3ξ)][Dab][Dab][Dab][dF]L[Dab][Dab][Thr(3ξ)]; lactam 3-C) | 2 | 0.125 | 0.125 | 2
CC(C)C[C@@H]1NC(=O)[C@@H](Cc2ccccc2)NC(=O)[C@H](CCN)NC(=O)[C@@H](NC(=O)[C@H](CCN)NC(=O)[C@@H](NC(=O)CCCN2CCOCC2)C(C)O)CCNC(=O)[C@H](C(C)O)NC(=O)[C@H](CCN)NC(=O)[C@H](CCN)NC1=O (stereo partly drawn) [Example 20, 4-Morpholinylbutanoyl polymyxin B nonapeptide] (X12-[Thr(3ξ)][Dab][Dab][Dab][dF]L[Dab][Dab][Thr(3ξ)]; lactam 3-C) | 4 | 1 | >32 | >32
CC(C)C[C@@H]1NC(=O)[C@@H](Cc2ccccc2)NC(=O)[C@H](CCN)NC(=O)[C@@H](NC(=O)[C@H](CCN)NC(=O)[C@@H](NC(=O)CC[C@@H]2CCCN2)C(C)O)CCNC(=O)[C@H](C(C)O)NC(=O)[C@H](CCN)NC(=O)[C@H](CCN)NC1=O (stereo partly drawn) [Example 30, 3-(S)-(1-pyrrolidin-2-yl)-propionyl polymyxin B nonapeptide] (X10-[Thr(3ξ)][Dab][Dab][Dab][dF]L[Dab][Dab][Thr(3ξ)]; lactam 3-C) | 16 | 0.125 | 1 | 8
CC(C)C[C@@H]1NC(=O)[C@@H](Cc2ccccc2)NC(=O)[C@H](CCN)NC(=O)[C@@H](NC(=O)[C@H](CCN)NC(=O)[C@@H](NC(=O)CCO)C(C)O)CCNC(=O)[C@H](C(C)O)NC(=O)[C@H](CCN)NC(=O)[C@H](CCN)NC1=O (stereo partly drawn) [Example 33, 3-Hydroxypropanoyl polymyxin B nonapeptide] ({Propanoyl(3-OH)}-[Thr(3ξ)][Dab][Dab][Dab][dF]L[Dab][Dab][Thr(3ξ)]; lactam 3-C) | >32 | 0.5 | 4 | >32
CC(C)C[C@@H]1NC(=O)[C@@H](Cc2ccccc2)NC(=O)[C@H](CCN)NC(=O)[C@@H](NC(=O)[C@H](CCN)NC(=O)[C@@H](NC(=O)CO)C(C)O)CCNC(=O)[C@H](C(C)O)NC(=O)[C@H](CCN)NC(=O)[C@H](CCN)NC1=O (stereo partly drawn) [Example 16, Hydroxyacetyl polymyxin B nonapeptide] (Glycolyl-[Thr(3ξ)][Dab][Dab][Dab][dF]L[Dab][Dab][Thr(3ξ)]; lactam 3-C) | 32 | 0.25 | 8 | 32
CC(C)C[C@@H]1NC(=O)[C@@H](Cc2ccccc2)NC(=O)[C@H](CCN)NC(=O)[C@@H](NC(=O)[C@H](CCN)NC(=O)[C@@H](NC(=O)CCC(C)(C)N)C(C)O)CCNC(=O)[C@H](C(C)O)NC(=O)[C@H](CCN)NC(=O)[C@H](CCN)NC1=O (stereo partly drawn) [Example 28, 4-Amino-4-methyl pentanoyl polymyxin B nonapeptide] (X11-[Thr(3ξ)][Dab][Dab][Dab][dF]L[Dab][Dab][Thr(3ξ)]; lactam 3-C) | 4 | <0.06 | 0.25 | 4
CC(C)C[C@@H]1NC(=O)[C@@H](Cc2ccccc2)NC(=O)[C@H](CCN)NC(=O)[C@@H](NC(=O)[C@H](CCN)NC(=O)[C@@H](NC(=O)[C@H](CCN)NC(=O)Nc2ccccc2Cl)[C@@H](C)O)CCNC(=O)[C@H]([C@@H](C)O)NC(=O)[C@H](CCN)NC(=O)[C@H](CCN)NC1=O [CB-182,804, reference compound] ({NH(2-ClPh)-CO}-[Dab]T[Dab][Dab][Dab][dF]L[Dab][Dab]T; lactam 4-C; N-terminus assumed) | 2 | 1 |  | 0.5
CC(C)C[C@@H]1NC(=O)[C@@H](Cc2ccccc2)NC(=O)[C@H](CCN)NC(=O)[C@@H](NC(=O)[C@H](CCN)NC(=O)[C@@H](NC(=O)CCCCCO)C(C)O)CCNC(=O)[C@H](C(C)O)NC(=O)[C@H](CCN)NC(=O)[C@H](CCN)NC1=O (stereo partly drawn) [Example 21, 6-Hydroxyhexanoyl polymyxin B nonapeptide] (X9-[Thr(3ξ)][Dab][Dab][Dab][dF]L[Dab][Dab][Thr(3ξ)]; lactam 3-C) | 32 | 1 | 32 | >32
CC(C)C[C@@H]1NC(=O)[C@@H](Cc2ccccc2)NC(=O)[C@H](CCN)NC(=O)[C@@H](NC(=O)[C@H](CCN)NC(=O)[C@@H](NC(=O)C2CCC(N)CC2)C(C)O)CCNC(=O)[C@H](C(C)O)NC(=O)[C@H](CCN)NC(=O)[C@H](CCN)NC1=O (stereo partly drawn) [Example 27, cis-4-aminocyclohexane carbonyl polymyxin B nonapeptide] (X7-[Thr(3ξ)][Dab][Dab][Dab][dF]L[Dab][Dab][Thr(3ξ)]; lactam 3-C) | 2 | 0.125 | 0.125 | 0.5
CNCCCC(=O)N[C@H](C(=O)N[C@@H](CCN)C(=O)N[C@H]1CCNC(=O)[C@H](C(C)O)NC(=O)[C@H](CCN)NC(=O)[C@H](CCN)NC(=O)[C@H](CC(C)C)NC(=O)[C@@H](Cc2ccccc2)NC(=O)[C@H](CCN)NC1=O)C(C)O (stereo partly drawn) [Example 23, 4-(N-methylamino)-butanoyl polymyxin B nonapeptide] (NMeGABA-[Thr(3ξ)][Dab][Dab][Dab][dF]L[Dab][Dab][Thr(3ξ)]; lactam 3-C) | 0.5 | 0.25 | 0.5 | 8
CCCCCC(O)CC(=O)N[C@H](C(=O)N[C@@H](CCN)C(=O)N[C@H]1CCNC(=O)[C@H](C(C)O)NC(=O)[C@H](CCN)NC(=O)[C@H](CCN)NC(=O)[C@H](CC(C)C)NC(=O)[C@@H](Cc2ccccc2)NC(=O)[C@H](CCN)NC1=O)C(C)O (stereo partly drawn) [Example 17, 3-(R,S)-3-Hydroxyoctanoyl polymyxin B nonapeptide] ({Octanoyl(3-OH)}-[Thr(3ξ)][Dab][Dab][Dab][dF]L[Dab][Dab][Thr(3ξ)]; lactam 3-C) | 8 | 2 | 8 | 4
CCCCCCC(N)C(=O)N[C@H](C(=O)N[C@@H](CCN)C(=O)N[C@H]1CCNC(=O)[C@H](C(C)O)NC(=O)[C@H](CCN)NC(=O)[C@H](CCN)NC(=O)[C@H](CC(C)C)NC(=O)[C@@H](Cc2ccccc2)NC(=O)[C@H](CCN)NC1=O)C(C)O (stereo partly drawn) [Example 35, 2-(R,S)-2-Amino octanoyl polymyxin B nonapeptide] (H-[ξAoc(2)][Thr(3ξ)][Dab][Dab][Dab][dF]L[Dab][Dab][Thr(3ξ)]; lactam 4-C) |  | 0.25 | 1 | 2
